Values after ≈ are worked out from the molar mass of the structure shown. Active and inactive are the calls of the source. No cut-off for these calls is given here. Where a SMILES comes first, the peptide text is derived from it. [ ]: non-standard residue; d: D form. MeBmt = C/C=C/C[C@@H](C)[C@@H](O)[C@H](NC)C(=O)O; NMePhg = CN[C@H](C(=O)O)c1ccccc1; NMeT = CN[C@H](C(=O)O)[C@@H](C)O; NMeL = CN[C@@H](CC(C)C)C(=O)O; NMeV = CN[C@H](C(=O)O)C(C)C; dNMeA = CN[C@H](C)C(=O)O; Sar = CNCC(=O)O
What was measured:
Splenocyte = test: Immunosuppressive activity in mouse splenocytes assessed as inhibition of ConA- induced proliferation; assay type: functional, cell-based
[1] = Inhibition of cyclophilin in Hepatitis C virus assessed as inhibition of viral replicon replication by qRT-PCR analysis; parameters: species or system Hepacivirus hominis
[2] = Inhibition of cyclophilin in Hepatitis C virus assessed as inhibition of viral replicon replication in presence of 10% HSA by qRT-PCR analysis; parameters: species or system Hepacivirus hominis
[3] = Aqueous solubility of the compound at pH 6.8; assay type: physicochemical
[4] = AUC (0 to 24 hrs) in po dosed rat; assay type: ADME, organism-based; parameters: time < 24 hr, route oral; details: in vivo
[5] = Oral bioavailability in rat; assay type: ADME, organism-based; details: in vivo
[6] = Inhibition of cyclophilin in Hepatitis C virus assessed as inhibition of viral replicon replication in presence of 5% FBS by qRT-PCR analysis; parameters: species or system Hepacivirus hominis
Hepatitis C virus [7] = test: (§1) Antiviral activity against Hepatitis C virus genotype 1b infected in humanized liver SCID-Alb/uPA chimeric mouse assessed as reduction in serum HCV RNA level at 3.75 to 30 mg/kg, po bid administered via gavage for 14 days measured after 7 days without compound administration post-last dose; assay type: functional, organism-based; details: Hepacivirus hominis, subtype 1b
Hepatitis C virus [8] = test: as §1, with “14 days cotreated with peginterferon-alpha2a at 10 ug/kg, sc administered twice a week and measured after” for “14 days measured after”; assay type: functional, organism-based; details: Hepacivirus hominis, subtype 1b

EC50 [1] [µg/mL] | EC50 [2] [µg/mL] | solubility [3] [µg/mL] | AUC(0-t) at 24 h [4] [ng·h/mL] | bioavailability [5] [%] | EC50 [6] [µg/mL] | SMILES | IC50 (Splenocyte) [µg/mL] | Activity (Hepatitis C virus [7]) | Activity (Hepatitis C virus [8])
0.086 (≈ 0.0683 µM) |  |  |  |  |  | C/C=C/C[C@@H](C)[C@@H](O)[C@H]1C(=O)N[C@@H]([C@@H](C)O)C(=O)N(C)CC(=O)N(C)[C@@H](CC2CCCCC2)C(=O)N[C@@H](CC(C)C)C(=O)N(C)[C@@H](CC(C)C)C(=O)N[C@@H](C)C(=O)N[C@H](C)C(=O)N(C)[C@@H](CC(C)C)C(=O)N[C@@H](CC(C)C)C(=O)N(C)[C@@H](C(C)C)C(=O)N1C | 0.065 (≈ 0.0516 µM) |  | 
0.096 (≈ 0.0788 µM) | 0.37 | 6.5 (≈ 5.33 µM) | 140 | 4.3 | 0.096 | C/C=C/C[C@@H](C)[C@@H](O)[C@H]1C(=O)N[C@@H]([C@@H](C)O)C(=O)N(C)CC(=O)N(C)[C@@H](CC(C)C)C(=O)N[C@@H](CC(C)C)C(=O)N(C)[C@@H](CC(C)C)C(=O)N[C@@H](C)C(=O)N[C@H](C)C(=O)N(C)[C@@H](CC(C)C)C(=O)N[C@@H](CC(C)C)C(=O)N(C)[C@@H](C(C)C)C(=O)N1C (cyclo(A[dA][NMeL]L[NMeV][MeBmt]T[Sar][NMeL]L[NMeL])) | 0.026 (≈ 0.0213 µM) |  | 
0.084 (≈ 0.0671 µM) |  |  |  |  |  | C/C=C/C[C@@H](C)[C@@H](O)[C@H]1C(=O)N[C@@H]([C@@H](C)O)C(=O)N(C)[C@H](C)C(=O)N(C)[C@@H](c2ccccc2)C(=O)N[C@@H](CC(C)C)C(=O)N(C)[C@@H](CC(C)C)C(=O)N[C@@H](C)C(=O)N[C@H](C)C(=O)N(C)[C@@H](CC(C)C)C(=O)N[C@@H](CC(C)C)C(=O)N(C)[C@@H](C(C)C)C(=O)N1C (cyclo(A[dA][NMeL]L[NMeV][MeBmt]T[dNMeA][NMePhg]L[NMeL])) | 1.35 (≈ 1.08 µM) |  | 
0.12 (≈ 0.0969 µM) |  |  |  |  |  | C/C=C/C[C@@H](C)[C@@H](O)[C@H]1C(=O)N[C@@H]([C@@H](C)O)C(=O)N(C)CC(=O)N(C)[C@@H](c2ccccc2)C(=O)N[C@@H](CC(C)C)C(=O)N(C)[C@@H](CC(C)C)C(=O)N[C@@H](C)C(=O)N[C@H](C)C(=O)N(C)[C@@H](CC(C)C)C(=O)N[C@@H](CC(C)C)C(=O)N(C)[C@@H](C(C)C)C(=O)N1C | 0.8 (≈ 0.646 µM) |  | 
0.063 (≈ 0.0506 µM) |  |  |  |  |  | C/C=C/C[C@@H](C)[C@@H](O)[C@H]1C(=O)N[C@@H]([C@@H](C)O)C(=O)N(C)CC(=O)N(C)[C@@H](C2CCCCC2)C(=O)N[C@@H](CC(C)C)C(=O)N(C)[C@@H](CC(C)C)C(=O)N[C@@H](C)C(=O)N[C@H](C)C(=O)N(C)[C@@H](CC(C)C)C(=O)N[C@@H](CC(C)C)C(=O)N(C)[C@@H](C(C)C)C(=O)N1C | 0.41 (≈ 0.329 µM) |  | 
 | 0.11 | < 0.1 | 9450 | 74 | 0.03 | C/C=C/C[C@@H](C)[C@@H](O)[C@H]1C(=O)N[C@@H]([C@@H](C)O)C(=O)N(C)[C@H](C)C(=O)N(C)[C@@H]([C@@H](C)OC(C)(C)C)C(=O)N[C@@H](CC(C)C)C(=O)N(C)[C@@H](CC(C)C)C(=O)N[C@@H](C)C(=O)N[C@H](C)C(=O)N(C)[C@@H](CC(C)C)C(=O)N[C@@H](CC(C)C)C(=O)N(C)[C@@H](C(C)C)C(=O)N1C | 1.6 (≈ 1.25 µM) |  | 
0.042 (≈ 0.0334 µM) |  |  |  |  |  | C/C=C/C[C@@H](C)[C@@H](O)[C@H]1C(=O)N[C@@H]([C@@H](C)O)C(=O)N(C)[C@H](C)C(=O)N(C)[C@@H](C2CCCCC2)C(=O)N[C@@H](CC(C)C)C(=O)N(C)[C@@H](CC(C)C)C(=O)N[C@@H](C)C(=O)N[C@H](C)C(=O)N(C)[C@@H](CC(C)C)C(=O)N[C@@H](CC(C)C)C(=O)N(C)[C@@H](C(C)C)C(=O)N1C | 0.35 (≈ 0.278 µM) |  | 
0.039 (≈ 0.0316 µM) | 0.05 | < 0.1 | 13300 | 49 | 0.039 | C/C=C/C[C@@H](C)[C@@H](O)[C@H]1C(=O)N[C@@H]([C@@H](C)O)C(=O)N(C)[C@H](C)C(=O)N(C)[C@@H]([C@@H](C)CC)C(=O)N[C@@H](CC(C)C)C(=O)N(C)[C@@H](CC(C)C)C(=O)N[C@@H](C)C(=O)N[C@H](C)C(=O)N(C)[C@@H](CC(C)C)C(=O)N[C@@H](CC(C)C)C(=O)N(C)[C@@H](C(C)C)C(=O)N1C | 1.1 (≈ 0.892 µM) |  | 
0.15 (≈ 0.123 µM) | 2 | 0.2 (≈ 0.164 µM) | 111 | 2.1 | 0.15 | C/C=C/C[C@@H](C)[C@@H](O)[C@H]1C(=O)N[C@@H]([C@@H](C)O)C(=O)N(C)CC(=O)N(C)[C@@H]([C@@H](C)CC)C(=O)N[C@@H](CC(C)C)C(=O)N(C)[C@@H](CC(C)C)C(=O)N[C@@H](C)C(=O)N[C@H](C)C(=O)N(C)[C@@H](CC(C)C)C(=O)N[C@@H](CC(C)C)C(=O)N(C)[C@@H](C(C)C)C(=O)N1C | 0.77 (≈ 0.632 µM) |  | 
0.038 (≈ 0.0308 µM) | 0.35 |  | 4210 | 40 | 0.038 | C/C=C/C[C@@H](C)[C@@H](O)[C@H]1C(=O)N[C@@H]([C@@H](C)O)C(=O)N(C)[C@H](C)C(=O)N(C)[C@@H](CC(C)C)C(=O)N[C@@H](CC(C)C)C(=O)N(C)[C@@H](CC(C)C)C(=O)N[C@@H](C)C(=O)N[C@H](C)C(=O)N(C)[C@@H](CC(C)C)C(=O)N[C@@H](CC(C)C)C(=O)N(C)[C@@H](C(C)C)C(=O)N1C | 0.07 (≈ 0.0568 µM) |  | 

SMILES | EC50 [1] [µg/mL] | EC50 [2] [µg/mL] | solubility [3] [µg/mL] | AUC(0-t) at 24 h [4] [ng·h/mL] | bioavailability [5] [%] | EC50 [6] [µg/mL] | IC50 (Splenocyte) [µg/mL] | Activity (Hepatitis C virus [7]) | Activity (Hepatitis C virus [8])
C/C=C/C[C@@H](C)[C@@H](O)[C@H]1C(=O)N[C@@H]([C@@H](C)O)C(=O)N(C)[C@H](C)C(=O)N(C)[C@@H]([C@@H](C)OO)C(=O)N[C@@H](CC(C)C)C(=O)N(C)[C@@H](CC(C)C)C(=O)N[C@@H](C)C(=O)N[C@H](C)C(=O)N(C)[C@@H](CC(C)C)C(=O)N[C@@H](CC(C)C)C(=O)N(C)[C@@H](C(C)C)C(=O)N1C |  | 0.086 | > 122 | 5680 | 32 | 0.061 | 1.9 (≈ 1.54 µM) |  | 
C/C=C/C[C@@H](C)[C@@H](O)[C@H]1C(=O)N[C@@H]([C@@H](C)O)C(=O)N(C)[C@H](C)C(=O)N(C)[C@@H]([C@@H](C)OC)C(=O)N[C@@H](CC(C)C)C(=O)N(C)[C@@H](CC(C)C)C(=O)N[C@@H](C)C(=O)N[C@H](C)C(=O)N(C)[C@@H](CC(C)C)C(=O)N[C@@H](CC(C)C)C(=O)N(C)[C@@H](C(C)C)C(=O)N1C (cyclo(A[dA][NMeL]L[NMeV][MeBmt]T[dNMeA][NMeT](Me)L[NMeL])) |  | 0.061 | 117 (≈ 94.8 µM) | 16100 | 36 | 0.04 | 0.97 (≈ 0.786 µM) | Active | Active
